Source: patent US20220401574A1, “CARDIOPROTECTIVE MICROBUBBLE-LIPOSOMAL DRUG COMPLEXES” (UNIVERSITY OF PITTSBURGH - OF THE COMMONWEALTH SYSTEM OF …, priority 2019, published 2022)
Marks after values point to notes of the source that are not given here.

Experiments:
[1] = tested on: caspase-3; test: Caspase-3 activity assay in heart tissue; type: in vivo, mice; conditions: heart tissue homogenate
Method: Heart tissue was washed twice with cold PBS and lysed in lysis buffer (50 mM HEPES, pH 7.4, with 5 Mm CHAPS, and 5 mM DTT). Tissue lysates were centrifuged at 10,000 rcf for 15 min, and the total protein concentration was measured using a BCA assay kit (Thermo Fisher Scientific, MA). Caspase-3 activity assay was performed in triplicate in 96-well plates. For each protease assay, 200 μL assay buffer (100 mM HEPES, pH 7.2, 10% sucrose, 0.1% CHAPS, 1 Mm Na-EDTA, and 2 mM DTT) containing 50 μM Ac-DEVD-AMC (Enzo life, Farmingdale, N.Y.) was incubated with 50 μg lysate protein at 37° C. for 1 h.
Caspase-3 activity was measured by AMC liberation from Ac-DEVD-AMC substrate at 380/460 nm using a plate reader (Beckman Coulter, DTX-880 Multimode detector, Brea, Calif.). Relative fluorescence of substrate control was subtracted as background emission. Free AMC (Enzo life, NY) was used to make the standard curve: […]

[2] = tested on: left ventricular function; test: Assessment of cardiac function by serial echocardiography; type: in vivo, mice
Method: Two-dimensional short-axis images were obtained using a high-resolution Micro-Ultrasound system (Vevo 2100, VisualSonics Inc.) in B-mode and M-mode from parasternal short-axis view. […] LV mass index was calculated as LV mass/mouse body weight (g) on the day of measurement. […] Tumor volume and cardiac function were serially evaluated for up to 42 days using ultrasound imaging. Echocardiography was performed every 7 days after the 1st treatment. […] Ejection fraction […] and left ventricular (LV) mass index data within each treatment group were compared to that on day 0 (baseline) within the group using a two-tail t-test. The percentage of mice with changes in ejection fraction, fractional shortening and LV mass index, categorized as mild, moderate or severe, was compared between groups using Chi-square test, and differences between two groups were compared using Fisher's exact test. Kaplan-Meier survival curves were compared between groups using the log-rank test for trend.

[3] = tested on: MCA 205 murine sarcoma cells; test: Long-term cell viability, alamaBlue assay; type: cell-based; conditions: without US, 24, 48, 72 h
Method: (§1) MCA 205 murine sarcoma cells (generously provided by Dr. Walter J. Storkus at the University of Pittsburgh School of Medicine) were cultured in RPMI-1640 (Lonza, Biowhittaker, Basel, Switzerland), supplemented with 10% heat deactivated fetal bovine serum (FBS) and 1% penicillin-streptomycin at 37° C., and sub-cultured every 2 days and used before 8 passage.
Control conditions included cells mixed with free Dox, LDox, DoxLPX, ELPX without US treatment and untreated cells. After 1 h incubation, the wells were replaced with 500 μL fresh media. At 24, 48, and 72 h, the cells were incubated in 500 μL media containing 50 μg/mL alamaBlue® for 1 h. Thereafter, 100 μL media in each well was sampled and assayed on a plate reader (Beckman Coulter, DTX-880 Multimode detector, Brea, Calif.) at a wavelength of λex=530 nm and λem=590 nm. The same volume of media containing alamaBlue® was added in empty wells in the same 24-well plate to be used as the baseline absorbance. The percentage of viability at 24, 48, and 72 h was calculated by normalizing to that of untreated cells. As Dox-induced cytotoxicity takes about 48 hours to manifest, acute cytotoxicity (trypan blue assay) was attributed to ultrasound-microbubble interaction. […]

[4] = parameters: risk of cardiotoxicity occurrence: dose or concentration left out as unconfirmed; conditions: cited from earlier work
[5] = tested on: MCA 205 murine sarcoma cells; test: Acute cell viability, trypan blue exclusion assay; type: cell-based; conditions: 8 μg/mL, without US
Method: as §1
MCA 205 cells were suspended (5×10^4 cells in 500 μL media) in capped sterile polystyrene tubes. One of the following formulations was added to the tubes: DoxLPX, LDox, free Dox, ELPX, LDox+MB (e.g, unconjugated LDox and MB). […] Cell viability was evaluated 30 min later using the trypan blue exclusion assay where controls comprised identical tubes not exposed to US.
Live cells and total cell number were counted on a hemocytometer using an inverted microscope (Motic AE21, Scientific Instrument Company, Campbell, Calif.). Acute cell viability was quantified as the number of the live cells (trypan blue negative) divided by the total cell numbers. Each treatment condition was repeated independently three times.

[6] = tested on: MCA205 sarcoma; test: In vivo tumor treatment: tumor growth and survival; parameters: species or system mice; conditions: for Median survival time ± standard deviation: US Pulse 3 for MB formulations
Method: This example provides in vivo studies were performed using the Pulse 3 US regime. […] Treatments were infused over 15 min via internal jugular indwelling catheter on Days 0, 3, 7, 10.
Murine sarcoma model. The animal protocols were approved by the University of Pittsburgh Institutional Animal Care and Use Committee and conform to the Policy on Human Care and Use of Laboratory Animals. Female mice were used due to their susceptibility to Dox cardiotoxicity. Lipshultz et al., “Assessment of dexrazoxane as a cardioprotectant in doxorubicin-treated children with high-risk acute lymphoblastic leukaemia: long-term follow-up of a prospective, randomised, multicentre trial” Lancet Oncol. […] Eight-week-old female C57BL/6 mice were obtained from Jackson lab and housed in the animal facility of the Division of Laboratory Animal Resources at the University of Pittsburgh.
The pulse was repeated 500 times, with the pulse train repeated every 2.5 s to allow MB reperfusion into the target area. The overall duty cycle was 10%. The spatial peak temporal average intensity was 0.16 W/cm^2. The US treatment was continued for approximately 3-5 minutes after the intravenous MB infusion was completed to achieve complete MB destruction (e.g., ˜12-15 min total sonication time).
Tumor growth was evaluated by high-resolution 3D US imaging of the tumor using automated scanning (Vevo2100, Visualsonics, Ontario, Canada) at 21 MHz with a 0.2-mm step size between cross-sections. Tumor cross-sections were manually outlined and tumor volumes were calculated from 3D reconstructions of the outlined area. This technique can measure subcutaneous tumors with an irregular shape with an accuracy of ±20 mm^3. Tumor growth over time was fit to an exponential curve (y)=X0·e^kt, where X0 represents initial tumor volume, and t stands for time in days. Doubling times (DT) were calculated as DT=(Ln2)/k.
Treatments with various Dox formulations commenced when tumor volume reached 40-90 mm^3. The mice were randomly assigned to 1 of 6 treatment groups.
On the first day of treatment, the tumor bearing mice were anesthetized with 2% isoflurane in oxygen and an indwelling catheter was placed in the internal jugular vein to facilitate multiple intravenous infusions over time. See, FIG. 1B. […] See, FIG. 1B.
Tumor volume and cardiac function were serially evaluated for up to 42 days using ultrasound imaging. Echocardiography was performed every 7 days after the 1st treatment. On day 42, or if tumor volume exceeded 1,600 mm^3 before day 42, the mice were euthanized under deep anesthesia (5% isofluorane). Tumor and heart were harvested, washed with cold saline, then were cryopreserved or fixed with 10% formalin overnight, embedding in paraffin block and sectioning for further histology analysis.

[7] = tested on: heart tissue; test: Cardiac histopathology (H&E) and fibrosis analysis (Sirius red/fast green); type: in vivo, mice; conditions: for myocardial fibrosis / collagen deposition: Sirius red/fast green staining
Method: Routine hematoxylin and eosin (H&E) stained heart tissue slides were made for histologic examination. Sirius red/fast green staining was performed on heart tissue sections post-fixed in paraffin blocks. Twenty-three (23) Images were obtained on an Olympus IX81 microscope interfaced with a digital CCD camera (Olympus DP71) and quantitated using ImageJ 1.5 software.

[8] = Biodistribution assessment with Cy5.5 as Dox analog; type: in vivo, mice; conditions: organs harvested 3.5 hours after treatment, imaging
Source text: To assess bio-distribution of the drug post ultrasound treatment, Cy5.5 was used as a fluorescent Dox analog, injected i.v. as: Cy5.5-NH2, liposomal Cy5.5, liposomal Cy5.5+MB, Cy5.5LPX, and mice were euthanized 3.5 hrs later. Blood, tumor, spleen, kidney, liver, heart, lung, brain, skin on the back, muscle, femur (bone), and foot were imaged post-mortem and measured using a Xenogen IVIS 200 imaging system.
This example determines the fate of liposomal lipids and Dox after in vivo delivery. […]
To further quantify the distribution of Cy5.5-NH2, tumor, spleen, kidney, liver, heart, and lung were wet-weighed and […] of each tissue specimen were homogenized in 200 μL lysis buffer (50 mM HEPES, 50 mM NaCl, 1% Triton X-100, 5 mM EDTA, and 15 mM DTT) using a sonicator homogenizer (Sonicator Ultrasonic Processor XL, Misonix, Farmingdale, N.Y.) in Eppendorf tubes immersed in an ice-water. […]
50 μL supernatant of each specimen was added in black 384 well plates. Cy5.5-NH2 fluorescence intensity of 3 parallel samples of each organ was determined at Ex/Em 680/710 nm using a plate reader (Infinite 200 PRO, Tecan, Männedorf, Switzerland). […]

[9] = cited from earlier work

SMILES: COc1cccc2c1C(=O)c1c(O)c3c(c(O)c1C2=O)C[C@@](O)(C(=O)CO)C[C@@H]3O[C@H]1C[C@H](N)[C@H](O)[C@H](C)O1 [Dox, Doxorubicin]
- caspase-3 activity in cardiac tissue [1]: higher than that in mice treated with DoxLPX+US
- LVIDs, LVIDd change ([2]; Day 14 or Day 21 vs. Day 0): Significant increases
- mice with severely increased LV mass index ([2]; Day 21 vs. Day 0): 20.0%
- mice with severe reduction in EF ([2]; day 21): 40%
- mice with severe reduction in FS ([2]; day 21): 30%
- LV mass index change ([2]; vs. Day 0): significantly increased LV mass index on day 14
- LV mass over time ([2]; vs. baseline, up to Day 21): significantly greater than baseline by Day 14
- ejection fraction (EF) and fractional shortening (FS) over time ([2]; vs. baseline, up to Day 21): progressive decline in ejection fraction (EF) and fractional shortening (FS)
- cytotoxicity / cell viability ([3]; listed as Free Dox): more cytotoxicity than DoxLPX in the absence of US
- cytotoxicity / cell viability ([3]; listed as free Dox): highest cytotoxicity at 24, 48, and 72 h
- risk of cardiotoxicity occurrence ([4]; clinically): 26%
- maximal tolerated cumulative dose ([4]; in vivo): 400-550 mg/m2
- cell membrane integrity [5]: did not change the cell membrane integrity
- Median survival time ± standard deviation ([6]; 5 mg/kg equiv. Dox i.v., 4 treatments): 28.0 ± 7.5 days
- Median survival time ± standard deviation ([6]; 5 mg/kg equiv. Dox i.v., 4 treatments, listed as free Dox): 28 days
- prolongation of median survival ([6]; as compared to controls): 14%
- tumor volume as % of original (baseline) tumor volume ([6]; by Day 17.5): 610%
- Tumor doubling time ([6]; exponential fit of tumor volume, 5 mg/kg equiv. Dox i.v., 4 treatments): 7.1 ± 1.0**^,# Day
- myocardial fibrosis / collagen deposition [7]: significantly more areas of patchy myocardial interstitial fibrosis and perivascular fibrosis
- myocardial fibrosis / collagen deposition ([7]; listed as free Dox): induced moderate myocardial interstitial and perivascular fibrosis
- histological damage to heart tissue ([7]; hematoxylin/eosin staining, accumulative dosage 20 mg/kg): disorganization of myofibrillar arrays (first left panel of Dox group) and focal cytoplasmic vacuolization

SMILES: C[N+]1=C(/C=C/C=C/C=C2/N(CCCCCC(=O)NCCCCCCN)c3ccc4ccccc4c3C2(C)C)C(C)(C)c2c1ccc1ccccc21.Cl.[Cl-] [Cy5.5-NH2, Cyanine5.5-amine]
- ex vivo Cy5.5 fluorescence in organs [8]: noticeable Cy5.5 fluorescence in the heart and skeletal muscle
- water solubility [9]: moderate water solubility
- acid dissociation constant (pKa) ([9]; primary amine group): higher than 7
